Laboratory results published in patent publication US8110543B2, “Anti-invasive and anti-angiogenic compositions” (Angstrom Pharmaceuticals, Inc., priority 1997, dated 2012).

What was measured:
[1] = system: U87 tumors; assay: U87 glioblastoma orthotopic model; format: in vivo, mice; settings: tumor sections, mouse-CD31 immunostaining
Experimental: U87 cells were inoculated into the ventricles of nude mice and treatment was initiated 72 hrs after inoculation. Tumor volume was determined using caliper measurements after euthanasia and necropsy.
A: Control; B: Å6 only; C: CDDP only; D: Å6+CDDP.
U87 tumors were surgically inoculated into the cerebral ventricles of mice. The animals were allowed to recover for 72 hours at which time treatment with Å6 (75 mg/kg/day IP bid), CDDP (3 mg/kg/day given every other day from day 4×6 administrations), or a combination of Å6+CDDP was initiated,
Animals were treated for 21 days at which time they were euthanized and their brains evaluated for the presence of tumor. Transverse sections were stained with hematoxylin and eosin (H&E).
Tumor sections were also evaluated for microvessel density using antibodies specific for mouse-CD31 in immunostaining. Very few CD31^+ foci were evident in animals treated with the combination of Å6+CDDP.
Tumors were established as in the previous section, and the same therapeutic regimens were employed. Treatment was discontinued at day 21, and survival was measured. Control animals appeared moribund around day 25 and all of the animals in this group were dead by day 30.

[2] = set-up: species or system mice; settings: mouse, in vivo
Experimental: CDDP was tested at a dose of 3 mg/kg/day given every other day from day 4×6 administrations, which converts to approximately 6 mg/m^2 per administration. This is a substantially lower dose than that typically given to human patients (20-40 mg/m^2 for most tumors although doses as high as 200 mg/m^2 have been reported in neuroblastomas; the dose depends on the regimen used) since dose limiting toxicity (as exemplified by weight loss) occurs in mice at doses greater than 6 mg/m^2.

Structure (SMILES): [NH2][Pt]([NH2])([Cl])[Cl] [CDDP, cisplatin, reference compound]
- microvessel density (CD31+ foci), angiogenesis [1]: inhibited angiogenesis to some extent
- dose at which dose limiting toxicity (weight loss) occurs [2]: greater than 6 mg/m^2
